Laboratory results published in patent publication US20030175769A1, “Reagents for improved PCR” (priority 2001, published 2003).

Experiments:
[1] = system: plasmid containing the complete DPD cDNA; assay: Real time PCR signal intensity, FRET-HybProbe formate; assay type: biochemical; conditions: 0,1 g/μl compound
Description: For this experiment, the primer mix according to example 3 was used. Various amounts of plasmid containing the complete DPD cDNA ranging from 0,4 to 40 fg were amplified with the primer mix by means of PCR under the conditions of example 3 in the presence or absence of […] compound III according to example 2.
For Real Time PCR detection, FRET-hybridization probes from the LightCycler Dihydropyrimidin-Dehydrogenase (DPD) mRNA quantification kit (Roche Molecular Biochemicals, cat. No. 3136957) were used in concentrations according to the manufacturer's instructions.

[2] = system: PCR amplification mixture; assay: Hot start effect when added to a PCR amplification mixture; assay type: biochemical

SMILES: O=C(O)C1=C/C(=C(/c2ccc(O)c(C(=O)O)c2)c2cc(Cc3ccc(O)c(C(=O)O)c3)c(O)c(C(=O)O)c2)C=CC1=O [Compound I]
- specific amplification signal (FIG. 3a) ([1]; 0,4 fg template DNA): can only be obtained in presence of the additive
- specific signaling, cycle number of detection (FIG. 3b,c) ([1]; higher template concentrations (4 fg, 40 fg)): detected at earlier cycle numbers
- hot start effect [2]: extensive hot start effect
